Measured values reported in the OligoGym collection.
Oligonucleotides are given in HELM: sugar(base)linkage, 5' to 3'; d 2'-deoxyribose, r ribose, m 2'-O-methylribose, p phosphate. ss, as = sense and antisense strand

These substances were tested against TMEM63B (assay: reporter assay of Huesken 2005). Details: siRNA.
Note: test concentration or dose not given here.

Substance	normalised inhibition (eCFP-eYFP dual reporter)
RNA1{r(A)p.r(G)p.r(G)p.r(U)p.r(G)p.r(C)p.r(U)p.r(G)p.r(C)p.r(A)p.r(G)p.r(G)p.r(A)p.r(C)p.r(U)p.r(C)p.r(A)p.r(G)p.r(A)p.d(T)p.d(T)}|RNA2{r(U)p.r(C)p.r(U)p.r(G)p.r(A)p.r(G)p.r(U)p.r(C)p.r(C)p.r(U)p.r(G)p.r(C)p.r(A)p.r(G)p.r(C)p.r(A)p.r(C)p.r(C)p.r(U)p.d(G)p.d(A)}$$$RNA1{StrandType:ss}|RNA2{StrandType:as}$	61.8%
RNA1{r(A)p.r(G)p.r(U)p.r(G)p.r(C)p.r(C)p.r(C)p.r(A)p.r(C)p.r(A)p.r(A)p.r(C)p.r(U)p.r(A)p.r(C)p.r(A)p.r(A)p.r(G)p.r(A)p.d(T)p.d(T)}|RNA2{r(U)p.r(C)p.r(U)p.r(U)p.r(G)p.r(U)p.r(A)p.r(G)p.r(U)p.r(U)p.r(G)p.r(U)p.r(G)p.r(G)p.r(G)p.r(C)p.r(A)p.r(C)p.r(U)p.d(G)p.d(A)}$$$RNA1{StrandType:ss}|RNA2{StrandType:as}$	81.7%
RNA1{r(A)p.r(G)p.r(U)p.r(U)p.r(U)p.r(G)p.r(G)p.r(C)p.r(G)p.r(C)p.r(A)p.r(G)p.r(C)p.r(C)p.r(U)p.r(A)p.r(C)p.r(G)p.r(C)p.d(T)p.d(T)}|RNA2{r(G)p.r(C)p.r(G)p.r(U)p.r(A)p.r(G)p.r(G)p.r(C)p.r(U)p.r(G)p.r(C)p.r(G)p.r(C)p.r(C)p.r(A)p.r(A)p.r(A)p.r(C)p.r(U)p.d(G)p.d(G)}$$$RNA1{StrandType:ss}|RNA2{StrandType:as}$	60.9%
RNA1{r(A)p.r(U)p.r(C)p.r(A)p.r(A)p.r(U)p.r(G)p.r(U)p.r(C)p.r(G)p.r(U)p.r(C)p.r(C)p.r(U)p.r(C)p.r(U)p.r(U)p.r(C)p.r(A)p.d(T)p.d(T)}|RNA2{r(U)p.r(G)p.r(A)p.r(A)p.r(G)p.r(A)p.r(G)p.r(G)p.r(A)p.r(C)p.r(G)p.r(A)p.r(C)p.r(A)p.r(U)p.r(U)p.r(G)p.r(A)p.r(U)p.d(G)p.d(A)}$$$RNA1{StrandType:ss}|RNA2{StrandType:as}$	49.2%
RNA1{r(A)p.r(U)p.r(C)p.r(A)p.r(U)p.r(C)p.r(A)p.r(U)p.r(C)p.r(A)p.r(C)p.r(C)p.r(A)p.r(C)p.r(C)p.r(A)p.r(U)p.r(G)p.r(G)p.d(T)p.d(T)}|RNA2{r(C)p.r(C)p.r(A)p.r(U)p.r(G)p.r(G)p.r(U)p.r(G)p.r(G)p.r(U)p.r(G)p.r(A)p.r(U)p.r(G)p.r(A)p.r(U)p.r(G)p.r(A)p.r(U)p.d(G)p.d(G)}$$$RNA1{StrandType:ss}|RNA2{StrandType:as}$	59.5%
RNA1{r(A)p.r(U)p.r(C)p.r(C)p.r(U)p.r(C)p.r(A)p.r(U)p.r(C)p.r(C)p.r(C)p.r(A)p.r(A)p.r(G)p.r(A)p.r(U)p.r(G)p.r(A)p.r(G)p.d(T)p.d(T)}|RNA2{r(C)p.r(U)p.r(C)p.r(A)p.r(U)p.r(C)p.r(U)p.r(U)p.r(G)p.r(G)p.r(G)p.r(A)p.r(U)p.r(G)p.r(A)p.r(G)p.r(G)p.r(A)p.r(U)p.d(G)p.d(A)}$$$RNA1{StrandType:ss}|RNA2{StrandType:as}$	53.8%
RNA1{r(A)p.r(U)p.r(C)p.r(U)p.r(G)p.r(C)p.r(G)p.r(A)p.r(A)p.r(A)p.r(U)p.r(A)p.r(C)p.r(A)p.r(U)p.r(C)p.r(G)p.r(C)p.r(U)p.d(T)p.d(T)}|RNA2{r(A)p.r(G)p.r(C)p.r(G)p.r(A)p.r(U)p.r(G)p.r(U)p.r(A)p.r(U)p.r(U)p.r(U)p.r(C)p.r(G)p.r(C)p.r(A)p.r(G)p.r(A)p.r(U)p.d(T)p.d(T)}$$$RNA1{StrandType:ss}|RNA2{StrandType:as}$	50.5%
RNA1{r(A)p.r(U)p.r(G)p.r(C)p.r(G)p.r(U)p.r(A)p.r(G)p.r(A)p.r(C)p.r(A)p.r(C)p.r(A)p.r(C)p.r(C)p.r(U)p.r(C)p.r(C)p.r(A)p.d(T)p.d(T)}|RNA2{r(U)p.r(G)p.r(G)p.r(A)p.r(G)p.r(G)p.r(U)p.r(G)p.r(U)p.r(G)p.r(U)p.r(C)p.r(U)p.r(A)p.r(C)p.r(G)p.r(C)p.r(A)p.r(U)p.d(G)p.d(C)}$$$RNA1{StrandType:ss}|RNA2{StrandType:as}$	76.8%
